Data taken from US20250122192A1, “5-PYRIMIDINECARBOXAMIDE DERIVATIVES AND METHODS OF USING THE SAME” (Rgenta Therapeutics, Inc., priority 2021, published 2025).

Test system: PMS1
Test: Mini-gene reporter assay-PMS1
Assay type: cell-based
Conditions: Homo sapiens, HEK293, PMS1 mini-gene firefly luciferase reporter transiently transfected into HEK293 cells; read-out: PMS1 IC50
Summary of the method: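 Compound dilution series in duplicate added to transiently transfected HEK293 reporter cells, then incubated; EC50 from Levenberg-Marquardt fit of luminescence. The reporter joins the alternatively skipped exon, its neighbouring introns and exons to firefly luciferase, so induced inclusion gives more signal.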

First: CCOc1nc(N2CCNCC3(CC3)C2)ncc1C(=O)Nc1cn2cc(C)nc2c(C)n1 [Compound 92]
Second: CCOc1nc(N2CC3(CCNC3)C2)ncc1C(=O)Nc1cn2cc(C)nc2c(C)n1 [Compound 51]
The IC50 of the first is higher: 1000 to 3000 nM for the first, < 500 nM for the second. The second is the more potent here.

First: CCOc1nc(N2CC[C@@H]3CNC[C@@H]3CC2)ncc1C(=O)Nc1cc(F)c2nc(C)cn2c1 [Compound 181]
Second: CCOc1nc(N2CCCC(C3CNC3)C2)ncc1C(=O)Nc1cc(F)c2nc(C)cn2c1 (stereo not shown) [Compound 159]
The IC50 of the first is lower: 1000 to 3000 nM for the first, > 3000 nM for the second.

First: CCOc1nc(N2CCC(CNC)CC2)ncc1C(=O)Nc1cc(F)c2nc(C)cn2c1 [Compound 216]
Second: CCOc1nc(N2CCCC2CNC)ncc1C(=O)Nc1cc(F)c2nc(C)cn2c1 (stereo not shown) [Compound 188]
The IC50 of the first is lower: < 500 nM for the first, 1000 to 3000 nM for the second. The first is the more potent here.

First: CCOc1nc(N2CC(N3CCNCC3)C2)ncc1C(=O)Nc1cc(F)c2nc(C)cn2c1 [Compound 218]
Second: CCOc1nc(N2CCNC(C)C2)ncc1C(=O)Nc1cc(F)c2nc(C)cn2c1 (stereo not shown) [Compound 243]
The IC50 of the first is higher: > 3000 nM for the first, < 500 nM for the second.

Compared with `CCOc1nc(N2CC34CCCCC3(CNC4)C2)ncc1C(=O)Nc1cc(F)c2nc(C)cn2c1` (stereo not shown) [Compound 166], `CCOc1nc(N2CCCC3(CCNC3)C2)ncc1C(=O)Nc1cc(F)c2nc(C)cn2c1` (stereo not shown) [Compound 183] is higher in IC50: 1000 to 3000 nM for the first, > 3000 nM for the second.

First: CCOc1nc(N2CC[C@@H](N(C)C)C2)ncc1C(=O)Nc1cc(F)c2nc(C)cn2c1 [Compound 290, (R)-2-(3-(dimethylamino)pyrrolidin-1-yl)-4-ethoxy-N-(8-fluoro-2-methylimidazo[1,2-a]pyridin-6-yl)pyrimidine-5-carboxamide 4-methylbenzenesulfonate]
Second: CCOc1nc(N2CC(NC)C2)ncc1C(=O)Nc1cc(F)c2nc(C)cn2c1 [Compound 242]
The IC50 of the first is higher: 1000 to 3000 nM for the first, < 500 nM for the second. The second is the more potent here.

Compared with `CCOc1nc(N(C)C2CCNCC2)ncc1C(=O)Nc1cn2cc(C)nc2cn1` [Compound 256, 4-ethoxy-2-(methyl(piperidin-4-yl)amino)-N-(2-methylimidazo[1,2-a]pyrazin-6-yl)pyrimidine-5-carboxamide], `CCOc1nc(N(C)CC2CCNCC2)ncc1C(=O)Nc1cc(F)c2nc(C)cn2c1` [Compound 237] is higher in IC50: < 500 nM for the first, > 3000 nM for the second. The first is the more potent here.

`CCOc1nc(N2CC(NC)C2)ncc1C(=O)Nc1ccc2nn(C)cc2c1` [Compound 255, 4-ethoxy-N-(2-methyl-2H-indazol-5-yl)-2-(3-(methylamino)azetidin-1-yl)pyrimidine-5-carboxamide] and `CCOc1nc(N2CCC(NC)C2)ncc1C(=O)Nc1ccc2nc(C)cn2c1` (stereo not shown) [Compound 274, 4-ethoxy-2-(3-(methylamino)pyrrolidin-1-yl)-N-(2-methylimidazo[1,2-a]pyridin-6-yl)pyrimidine-5-carboxamide] cannot be ordered by IC50: > 3000 nM for the first, > 3000 nM for the second.

Compared with `CCOc1nc(N2CCCCC(C3CNC3)C2)ncc1C(=O)Nc1cc(F)c2nc(C)cn2c1` (stereo not shown) [Compound 150], `CCNC1CCCN(c2ncc(C(=O)Nc3cc(F)c4nc(C)cn4c3)c(OCC)n2)C1` (stereo not shown) [Compound 176] is lower in IC50: 1000 to 3000 nM for the first, 500 to 1000 nM for the second. The second is the more potent here.

First: CCNC1CN(c2ncc(C(=O)Nc3cc(F)c4nc(C)cn4c3)c(OCC)n2)C1 [Compound 202]
Second: CCOc1nc(N2CC3=C(CNC3)C2)ncc1C(=O)Nc1cc(F)c2nc(C)cn2c1 [Compound 114]
The IC50 of the first is higher: 500 to 1000 nM for the first, < 500 nM for the second. The second is the more potent here.

`CCOc1nc(N2CCNCC2C)ncc1C(=O)Nc1cn2cc(C)nc2c(C)n1` (stereo not shown) [Compound 42] and `CCOc1nc(N2CCNC(CC)C2)ncc1C(=O)Nc1cn2cc(C)nc2c(C)n1` (stereo not shown) [Compound 63] fall in the same range of IC50: 500 to 1000 nM for the first, 500 to 1000 nM for the second.

Compared with `CCOc1nc(N2CCC3(CCNC3)CC2)ncc1C(=O)Nc1cc(F)c2nc(C)cn2c1` [Compound 225], `CCOc1nc(N2CCC(C3(O)CNC3)CC2)ncc1C(=O)Nc1cc(F)c2nc(C)cn2c1` [Compound 129] is higher in IC50: < 500 nM for the first, > 3000 nM for the second.

Compared with `CCOc1nc(N2C[C@@H](C)N[C@@H](C)C2)ncc1C(=O)Nc1cc(F)c2nn(C)cc2c1` [Compound 280, 2-((3R,5S)-3,5-dimethylpiperazin-1-yl)-4-ethoxy-N-(7-fluoro-2-methyl-2H-indazol-5-yl)pyrimidine-5-carboxamide 4-methylbenzenesulfonate], `CCOc1nc(N2CCNCC2)ncc1C(=O)Nc1cc(F)c2nn(C)cc2c1` [Compound 26, 4-ethoxy-N-(7-fluoro-2-methyl-2H-indazol-5-yl)-2-(piperazin-1-yl)pyrimidine-5-carboxamide] is lower in IC50: 1000 to 3000 nM for the first, 500 to 1000 nM for the second. The second is the more potent here.

`CCOc1nc(N2CCC(NC)C2)ncc1C(=O)Nc1cn2cc(C)nc2c(C)n1` (stereo not shown) [Compound 99] was tested, and the IC50 was < 500 nM.

Same assay, conditions: Homo sapiens; at 5 μM; PMS1 mini-gene firefly luciferase reporter in HEK293 cells; read-out: PMS1% Effect at 5 μM

`CCOc1nc(N2CC[C@H](NC)C2)ncc1C(=O)Nc1ccn2nc(C)cc2c1` [Compound 314, 4-ethoxy-2-[(3S)-3-(methylamino)pyrrolidin-1-yl]-N-2-methylpyrazolo[1,5-a]-pyridin-5-ylpyrimidine-5-carboxamide] was tested, and the activation at 5 µM was > 75%.
